Where “and” joins values, the source holds several entries; their conditions need not be identical. Equal values may be shown once.
System: 876862-298-R-J1-PDC complex spheroids, viability % test/control
Assay: Anticancer human tumor 876862-298-R-J1-PDC patient-derived endometrial carcinoma cell line growth inhibition [CLK]
Conditions: for viability, T/C: stronger effect = lower value
From the text: A high-throughput screen of multi-cell type tumor spheroids was designed to identify active combinations of […] and targeted small molecules. Complex spheroids include a stromal component modeled by human endothelial cells (HUVEC) and fibroblasts modeled by human mesenchymal stem cells (MSCs). The concentration ranges selected for each drug and investigational agent were based upon clinically achievable concentrations if the clinical Cmax of the agent was known.
Compounds. The drugs and investigational agents: cirtuvivint (SM08502; NSC835563), CC-671 (NSC850746), vemurafenib (NSC761431), tapotoclax (NSC804041), sotorasib (NSC818433), adagrasib (NSC831453), MRTX-1133 (NSC836407), BAY2416964 (NSC825713), copanlisib (NSC816437), inavolisib (NSC800729), abemaciclib (NSC768073), osimertinib (NSC779217), entinostat (NSC756642), eltanexor (KPT-8602, NSC794443), venetoclax (NSC766270), ceralasertib (NSC777638), bortezomib (NSC756655), olaparib (NSC753686), talazoparib (NSC767125), alisertib (NSC759677), peposertib (NSC802822), gemcitabine (NSC613327), 5-fluorouracil (NSC19893), SN-38 (NSC673596), oxaliplatin (NSC266046), paclitaxel (NSC125973), and doxorubicin (NSC123127), were obtained from the National Cancer Institute (NCI) Developmental Therapeutics Program Chemical Repository. The FDA-approved anticancer drug set is available from the Developmental Therapeutics Program at https://dtp.cancer.gov/organization/dscb/obtaining/available plates.htm. […] The stock solutions were prepared in dimethyl sulfoxide (DMSO, Sigma-Aldrich, St. Louis, MO, cat. D2650), except for the platinum complexes which were prepared in saline (Quality Biological, Gaithersburg, MD, cat. 114-055-101), at 800-fold the tested concentration and stored at -70 degrees C prior to their use. All drugs and investigational agents were tested over a range starting from a high concentration at or near the clinical Cmax and decreasing in half-log increments. If the clinical Cmax for an agent had not been determined, the highest concentration tested was 10 microM.
Cell Culture. All cells were maintained in an incubator at 37 degrees C and 5% CO2 with 95% humidity. The PDC lines were cultured according to standard operating procedures established by the NCI PDMR. Briefly, all PDCs were thawed and cultured in Matrigel-coated flasks prepared with a working solution of 1X Ham's F-12 nutrient mix, without supplementation (Invitrogen, Waltham, MA, cat. 11765054), 100 U/mL penicillin-streptomycin (Invitrogen, cat. 15140122), and 2.5% Matrigel (Corning Inc., Corning, NY, cat. 354248) for the first three passages. The 947758-054-R-J2-PDC line was cultured in 6B/Colon 1A media, which includes advanced DMEM/F-12 (Thermo Fisher Scientific, cat. 12634028), 10 mM HEPES (Thermo Fisher Scientific, cat. 15630080), 1X GlutaMAX supplement (Thermo Fisher Scientific, cat. 35050061), 0.1 mg/mL primocin (InvivoGen, cat. ant-pm-2), 10% defined fetal bovine serum, heat inactivated (HyClone Laboratories Inc., cat. SH30070.03HI), 1.25 mM N-Acetyl-L-cysteine (Sigma-Aldrich, cat. A9165), 10 mM nicotinamide (Sigma-Aldrich, cat. N0636), 1X B-27 supplement (Thermo Fisher Scientific, cat. 17504044), 1X N-2 supplement (Thermo Fisher Scientific, cat. 17502048), and 10 microM Y-27632 dihydrochloride (Tocris Bioscience, cat. 1254). The 876862-298-R-J1-PDC was cultured in 6E media, which includes all 6B/Colon 1A media components plus 50% L-WRN conditioned media (ATCC, cat. CRL-3276), 50 ng/mL recombinant human EGF recombinant protein (hEGF; Thermo Fisher Scientific, cat. PHG0311), 10 ng/mL recombinant human fibroblast growth factor 10 (hGFG-10; PeproTech, cat. 100-26), 1 ng/mL recombinant human fibroblast growth factor 2 (hFGF-2; PeproTech, cat. 100-18B), and 1 µM prostaglandin E2 (PGE2; Tocris, cat. 2296). The 227483-062-R1-J1-PDC line was cultured in Panc media, containing all 6E components except hFGF-2, with the addition of 500 nM SB-431542 (Selleckchem, cat. S1067) and 10 nM gastrin (Tocris, cat. 3006). […]
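Note: spheroids exposed to drugs for 7 days before readout.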
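Throughout, for viability, T/C: 100% = DMSO vehicle control wells.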

| Compound | IC50 (curve of compound) | IC50 (compound alone, run of 09/18/2023) | IC50 (compound alone, run of 09/19/2023) | viability, T/C (compound 0.00316 µM) | viability, T/C (compound 0.01 µM) | viability, T/C (compound 0.0316 µM) | viability, T/C (compound 0.1 µM) | viability, T/C (compound 0.316 µM) | viability, T/C (compound 1 µM) | viability, T/C (compound 3.16 µM) | viability, T/C (compound 10 µM) | viability, T/C (compound 0.000316 µM) | viability, T/C (compound 0.001 µM) | viability, T/C (compound 0.00949 µM) | viability, T/C (compound 0.03 µM) | viability, T/C (compound 0.0949 µM) | viability, T/C (compound 0.3 µM) | viability, T/C (compound 0.949 µM) | viability, T/C (compound 3 µM) |
| --- | --- | --- | --- | --- | --- | --- | --- | --- | --- | --- | --- | --- | --- | --- | --- | --- | --- | --- | --- |
| CCc1c2c(nc3ccc(O)cc13)-c1cc3c(c(=O)n1C2)COC(=O)[C@]3(O)CC | < 0.00316 µM | – | – | 48% and 36.5% | 9.1% and 7.37% | 6.83% and 6.05% | 5.12% and 5.99% | 3.64% and 4.64% | 2.58% and 4.7% | – | – | – | – | – | – | – | – | – | – |
| CNC(=O)c1ccc(Nc2nc(OC3CCCC3)c3c(-c4ccc5nc(C)oc5c4)c[nH]c3n2)c(OC)c1 | – | – | 112 nM [middle of 11 runs] | – | – | 86% [middle of 12 runs] | 49.5% [middle of 12 runs] | 37.8% [middle of 12 runs] | 28.6% [middle of 12 runs] | 24.6% [middle of 12 runs] | 23.1% [middle of 12 runs] | – | – | – | – | – | – | – | – |
| COC1C=CCC(C)C(C)S(=O)(=O)NC(=O)c2ccc3c(c2)N(CC2CCC21)CC1(CCCc2cc(Cl)ccc21)CO3 (configuration not stated) | 8.2 µM and 7.14 µM | – | – | – | – | 112% and 102% | 97.2% and 97.7% | 102% and 97.5% | 107% and 99.3% | 109% and 99.7% | 38.3% and 29.6% | – | – | – | – | – | – | – | – |
| Nc1ccccc1NC(=O)c1ccc(CNC(=O)OCc2cccnc2)cc1 | 7.34 µM and 6 µM | – | – | – | – | 99.9% and 95.4% | 106% and 99.6% | 105% | 91.7% and 106% | 80.1% and 75.2% | 39.1% and 29.7% | – | – | – | – | – | – | – | – |
| Nc1ccn(C2OC(CO)C(O)C2(F)F)c(=O)n1 (configuration not stated) | < 0.0316 µM | – | – | – | – | 12.8% and 8.55% | 7.47% and 6.97% | 7.3% and 6.5% | 6.05% and 6.36% | 6.22% and 8.41% | 7.04% and 6.47% | – | – | – | – | – | – | – | – |
| O=C(c1cc(Cc2n[nH]c(=O)c3ccccc23)ccc1F)N1CCN(C(=O)C2CC2)CC1 | > 10 µM | – | – | – | – | 105% and 91.5% | 107% and 99% | 109% and 99.4% | 109% and 104% | 108% and 106% | 90.4% and 89.1% | – | – | – | – | – | – | – | – |
| O=c1[nH]cc(F)c(=O)[nH]1 | > 10 µM and 6.77 µM | – | – | – | – | 99.1% and 101% | 93.2% and 107% | 100% and 99.6% | 104% and 101% | 70% and 56.4% | 54.1% and 46.7% | – | – | – | – | – | – | – | – |

Continued, in another order:

| IC50 (curve of compound) | IC50 (compound alone, run of 09/18/2023) | IC50 (compound alone, run of 09/19/2023) | Compound | viability, T/C (compound 0.00316 µM) | viability, T/C (compound 0.01 µM) | viability, T/C (compound 0.0316 µM) | viability, T/C (compound 0.1 µM) | viability, T/C (compound 0.316 µM) | viability, T/C (compound 1 µM) | viability, T/C (compound 3.16 µM) | viability, T/C (compound 10 µM) | viability, T/C (compound 0.000316 µM) | viability, T/C (compound 0.001 µM) | viability, T/C (compound 0.00949 µM) | viability, T/C (compound 0.03 µM) | viability, T/C (compound 0.0949 µM) | viability, T/C (compound 0.3 µM) | viability, T/C (compound 0.949 µM) | viability, T/C (compound 3 µM) |
| --- | --- | --- | --- | --- | --- | --- | --- | --- | --- | --- | --- | --- | --- | --- | --- | --- | --- | --- | --- |
| – | 99.4 nM [middle of 12 runs] | – | CN1CCN(c2cc(C(=O)Nc3cc4cc(-c5cnn(C)c5)ccc4cn3)ccn2)CC1 | – | – | 95.1% [middle of 12 runs] | 49.8% [middle of 12 runs] | 3.46% [middle of 12 runs] | 1.68% [middle of 12 runs] | 1.49% [middle of 12 runs] | 1.35% [middle of 12 runs] | – | – | – | – | – | – | – | – |
| 0.0635 µM and 0.0421 µM | – | – | COc1c(OCCCN2CCOCC2)ccc2c3n(c(=NC(=O)c4cnc(N)nc4)nc12)CCN3 | 105% and 81.8% | 89.7% and 83.9% | 70.9% and 57% | 37.8% and 26.3% | 17% and 14.9% | 15% and 16% | – | – | – | – | – | – | – | – | – | – |
| > 0.1 µM | – | – | Cn1ncnc1[C@H]1c2n[nH]c(=O)c3cc(F)cc(c23)N[C@@H]1c1ccc(F)cc1 | 106% and 96.8% | 103% and 105% | 107% and 114% | 107% and 101% | – | – | – | – | 110% and 102% | 91.2% and 96.9% | – | – | – | – | – | – |
| 0.0473 µM and 0.0522 µM | – | – | NC(=O)C(=Cn1cnc(-c2cc(C(F)(F)F)cc(C(F)(F)F)c2)n1)c1cncnc1 | – | – | – | – | – | – | – | – | – | – | 78% and 78.2% | 54.1% and 60.3% | 37.5% and 38.2% | 33.6% and 27.7% | 24.4% and 18.7% | 13.4% and 12.4% |

— PubChem BioAssay AID2060607 (Molecular Pharmacology Branch, DTP, NCI, 2025)
